Reference: US5656721A, “Peptide derivatives” (Sandoz Ltd., priority 1986, dated 1997)
Like-named read-outs stand apart in the source and are kept apart here. Starred links: 1 amine or outer side, 2 acyl side, 3 side chain; linkers in the order of their positions; H or OH if unused. Positions of bridges follow the written chain, without caps; N, C: chain ends. Non-standard residues stand in square brackets, D forms with d. Residues, ends and D or L forms follow the SMILES beside them. X1 = O=C([C@@H](Cc1ccccc1)N(C[C@@]1(O)OC[C@@H](O)[C@@H](O[C@H]2O[C@H](CO)[C@@H](O)[C@H](O)[C@H]2O)[C@@H]1O)[*:1])[*:2]; X3 = O=C([C@@H](Cc1ccccc1)N(C[C@@]1(O)OC[C@@H](O)[C@@H](O)[C@@H]1O)[*:1])[*:2]; X2 = O=C([C@H](CS[*:3])N(C[C@@]1(O)OC[C@@H](O)[C@@H](O)[C@@H]1O)[*:1])[*:2]; Thr(ol) = C[C@@H](O)[C@H](N)CO

Legend:
GH level in the serum [1] = assay type: in vivo, rats
Procedure: Male rats are decapitated and blood is collected 1 hour after administering the GH secrection inhibiting compound in several logarithmically spaced doses. The GH level in the serum is determined means of RIA. In this test, these compounds of the invention are active at doses from about 0.02 to about 30 microgram/kg s.c.

[2] = Bioavailability test, oral or intravenous administration, blood detection by radioimmunoassay; assay type: in vivo, dogs
Description: The compounds of the invention may be compared with the unmodified peptides in standard bioavailability tests.
The compounds of the invention, for example, may be detected in the blood plasma for a longer period after administration than the unmodified peptides, as indicated in standard bioavailability experiments.
The compounds of the invention and the unmodified peptide may be administered to for example dogs in a single dose sufficient to produce a therapeutic effect by oral or intravenous administration.
Doses used are those which permit the peptide or a metabolite thereof to be detected in the blood. Detection may be effected in conventional manner, e.g. by radioimmunoassay.

[3] = Elimination through bile and urine in anaesthetized cannulated rats after s.c. administration; settings: male, rat, in vivo, sc, 10 microgram/kg
Procedure: Additionally the compounds of the invention advantageously are eliminated to a greater extent through the kidneys. This may be observed in standard tests.
Fasted Male rats (225-375 g) are administered orally with water (50 ml/kg). After 30 minutes the animals are anaesthetized with e.g. Inactin (100 mg/kg i.p.). The bile duct and bladder are cannulated. Both V. jugularis are exposed. In one vein an infusion of glucose 5% with ethanol 1% is administered (5 ml/hr) to stimulate diuresis. The other vein is used to take blood samples (0.5 ml) every hour over 4 hours.
The compound of the invention and the unmodified peptide is administered s.c. at a dose of from about 10 to about 1000 microgram/Kg. The concentration of the compound is determined in conventional manner e.g. by RIA.
In the above test for example the following results have been obtained with the example 2 compound and octreotide at a dose of 10 microgram/kg: […]

[4] = system: GH (growth hormone) secretion; assay: GH concentration in blood of fasted rhesus monkeys after p.o. administration; assay type: in vivo; settings: for duration of GH lowering effect: p.o., example 2 at 0.1 mg/kg, lowering by at least 50 per cent
Procedure: Compounds of the invention which inhibit GH (growth hormone) secretion, especially the compounds of formula VIII, and more especially compounds of formula VIII a to f, and reduce the GH concentrations in the blood, may be tested as follows: Fasted rhesus monkeys (at least 5 monkeys) in primate chairs receive the compound of the invention in a piece of banana as vehicle. The compounds are administered at a dose of from about 0.1 mg/kg to about 10 mg/kg p.o. Blood is taken from the […] via a catheter. The GH concentration in the blood is measured by RIA (radio immunoassay).

gastric acid secretion = assay: Gastric acid secretion in fasted rats with stomach fistula; assay type: in vivo; settings: for duration of increased stomach pH / pH of the stomach juice reached: by stomach tube
Procedure: The activity of these compounds is observed in e.g. the following test: GH secretion inhibiting compounds of the invention are administered to fasted rats with fistula implanted in their stomach in doses from about 0.05 mg/kg to about 5 mg/kg by stomach tune. After 1 hour the fistula is opened. The stomach Juice is collected in 30 minute periods. The collected volumes are registered and the acid concentration determined.

[5] = Absorption on oral administration, plasma levels by RIA; assay type: in vivo, OFA rats; settings: OFA, rat, 10 mg/kg; for level at 0.25 h: 15 mins., read-out: Rat plasma levels following oral administration, 15 mins.; for level at 0.5 h: 30 mins., read-out: Rat plasma levels following oral administration, 30 mins.; for level at 1 h: 60 mins., read-out: Rat plasma levels following oral administration, 60 mins.
Procedure: Improved absorption on oral administration may be detected for the compounds of the invention as follows:
The compound of the invention and the unmodified analogue are administered orally to OFA rats (e.g. 10 mg/kg). After definite periods of time, e.g. 15, 30 and 60 minutes, blood samples are collected, These are analysed for their drug content by e.g. RIA.

[6] = system: calcium level in the blood; assay: Hypocalcemic activity, calcium level in the blood after i.v. administration; assay type: in vivo; settings: dogs, 5 μg/kg
Description: The sugar derivatives of calcitonin and of calcitonin analogues or derivatives according to the invention, more especially the derivatives of formula X reduce the calcium plasma level. Moreover, they are functional antagonists of the parathormone, and effect a positive calcium balance in the bones. The hypocalcemic activity of the new compounds may be measured in known manner, e.g. according to the method of M. Azria et al., reported in the Calcitonin 1984 Symposium, 24th October, Milan and published as "Short Communication" in "Current Clinical Practice Series" No. 42, Excerpta Medica 1986, page 104. In this method, a Ca^2+ -ion selective electrode is used, so that the content of calcium ions in the blood of young rabbits or dogs may be continuously measured. The compounds are administered i.v. at a dosage of from about 0.1 to about 10 micrograms/kg, e.g. conforming to ca. 1 international unit per kg. […]
It has for example been determined that each of the compounds of examples 37 and 38 have a duration of action that is much longer than with the unmodified peptide, when administered i.v. to dogs (5 μg/kg).

GH level in the serum [7] = assay: GH-reducing activity in male rats having oestradiol implants; assay type: in vivo; settings: oestradiol-implanted male rats
Procedure: The GH-reducing activity of these compounds is also observed after oral application to male rats having oestradiol implants. In this test there are relatively small variations in the GH level, The test is carried out as follows:
A loop (length 50 mm .0. 3 mm) of silastic with 50 mg of oestradiol is implanted under ether anaesthesis under the dorsal skin of male rats which have a weight of ca. 300 g. At various times (1 to 6 months later), these animals are used repeatedly for tests. The test substance is administered either s.c. or orally.
Directly before, as well as at various times after administration of the substance, ca. 0.8 ml of blood is removed from the retro-orbital plexus. It is centrifuged and the GH level in the serum is determined by RIA.

[8] = s.c., male rats, 1 hour after administration

Molecule: C[C@@H](O)[C@@H]1NC(=O)[C@H](CCCCN)NC(=O)[C@@H](Cc2c[nH]c3ccccc23)NC(=O)[C@H](Cc2ccccc2)NC(=O)[C@@H](NC(=O)[C@@H](Cc2ccccc2)NC(=O)[C@H]2OC(O)[C@H](O)[C@@H](O)[C@@H]2O)CSSC[C@@H](C(=O)N[C@H](CO)[C@@H](C)O)NC1=O (stereo partly shown) [Example 21]
- ID50 (amount required to lower the GH content by 50%) (GH level in the serum [1]; rat, in vivo, sc): 0.3 microgram/kg

Molecule: C[C@@H](O)[C@@H]1NC(=O)[C@H](CCCCN)NC(=O)[C@@H](Cc2c[nH]c3ccccc23)NC(=O)[C@H](Cc2ccccc2)NC(=O)[C@@H](NC(=O)[C@@H](Cc2ccccc2)NC[C@@]2(O)OC[C@@H](O)[C@@H](O[C@H]3O[C@H](CO)[C@@H](O)[C@H](O)[C@H]3O)[C@@H]2O)CSSC[C@@H](C(=O)N[C@H](CO)[C@@H](C)O)NC1=O [Example 2, N^α -[α-glucosyl(1-4)-dioxyfructosyl)-SMS] (H-[X1]CF[dW]KTC[Thr(ol)]; disulfide 2-7)
- elimination half-life ([2]; intravenous administration): about 2,3 hours
- blood concentration on oral administration compared with octreotide ([2]; oral administration, relative to octreotide): ten fold higher
- absolute bioavailability on the basis of the AUC, relative to octreotide ([2]; orally and intravenously administered, relative to octreotide): 5 times
- dose excreted ([3]; Percentage eliminated through Bile): 1.6%
- dose excreted ([3]; Percentage eliminated through Urine): 36%
- lowering of GH secretion ([4]; 0.1 mg/kg p.o.): at least 50 per cent
- duration of GH lowering effect [4]: > 10 h
- ID50 (amount required to lower the GH content by 50%) (GH level in the serum [1]; [8]): 0.190 microgram/kg
- duration of increased stomach pH (gastric acid secretion): 3,5 hours
- pH of the stomach juice reached (gastric acid secretion): 6-8 pH
- activity relative to cimetidine (gastric acid secretion; compared with cimetidine): at least 60 times

Molecule: CC[C@H](C)[C@@H]1NC(=O)[C@H](Cc2ccc(O)cc2)NC(=O)[C@@H](NC[C@@]2(O)OC[C@@H](O)[C@@H](O)[C@@H]2O)CSSC[C@@H](C(=O)N2CCC[C@H]2C(=O)N[C@@H](CC(C)C)C(=O)NCC(N)=O)NC(=O)[C@H](CC(N)=O)NC(=O)[C@H](CCC(N)=O)NC1=O [Example 44, [N-deoxy-fructosyl-Cys^1]-oxytocin] (H-[X2]YIQNCPLG-NH2; disulfide 1-6; C-terminus assumed)
- level at 0.25 h [5]: 11.8 ng/mL
- level at 0.5 h [5]: 6.98 ng/mL
- level at 1 h [5]: 3.98 ng/mL

Molecule: CC[C@H](C)[C@@H]1NC(=O)[C@H](Cc2ccc(O)cc2)NC(=O)[C@@H](N)CSSC[C@@H](C(=O)N2CCC[C@H]2C(=O)N[C@@H](CC(C)C)C(=O)NCC(N)=O)NC(=O)[C@H](CC(N)=O)NC(=O)[C@H](CCC(N)=O)NC1=O [oxytocin, reference compound]
- level at 0.25 h [5]: 7.53 ng/mL
- level at 0.5 h [5]: 3.6 ng/mL
- level at 1 h [5]: 2.55 ng/mL

Molecule: C[C@@H](O)[C@@H]1NC(=O)[C@H](CCCCN)NC(=O)[C@@H](Cc2c[nH]c3ccccc23)NC(=O)[C@H](Cc2ccccc2)NC(=O)[C@@H](NC(=O)[C@@H](Cc2ccccc2)NC[C@@]2(O)OC[C@@H](O)[C@@H](O)[C@@H]2O)CSSC[C@@H](C(=O)N[C@H](CO)[C@@H](C)O)NC1=O [Example 1] (H-[X3]CF[dW]KTC[Thr(ol)]; disulfide 2-7)
- ID50 (amount required to lower the GH content by 50%) (GH level in the serum [1]; rat, in vivo, sc): 0.045 microgram/kg

Molecule: N^α -isocaproyl-des(1-4)-[Ala^7,Nε-(1-deoxyfructosyl)-Lys^11,1 8 ]salmon Calcitonin [Example 37]
- duration of action compared with the unmodified peptide [6]: much longer
- reduction in the calcium level in the blood after 6 hours [6]: still as pronounced as after 3 hours

Molecule: C[C@H](N)C(=O)NCC(=O)N[C@H]1CSSC[C@@H](C(=O)O)NC(=O)[C@H](CO)NC(=O)[C@H]([C@@H](C)O)NC(=O)[C@H](Cc2ccccc2)NC(=O)[C@H]([C@@H](C)O)NC(=O)[C@H](CCCCN)NC(=O)[C@H](Cc2c[nH]c3ccccc23)NC(=O)[C@H](Cc2ccccc2)NC(=O)[C@H](Cc2ccccc2)NC(=O)[C@H](CC(N)=O)NC(=O)[C@H](CCCCN)NC1=O [natural stomatostatin, reference compound]
- ID50 (amount required to lower the GH content by 50%) (GH level in the serum [1]; [8]): 93 microgram/kg

Molecule: C[C@@H](O)[C@@H]1NC(=O)[C@H](CCCCN)NC(=O)[C@@H](Cc2c[nH]c3ccccc23)NC(=O)[C@H](Cc2ccccc2)NC(=O)[C@@H](NC(=O)[C@H](N)Cc2ccccc2)CSSC[C@@H](C(=O)N[C@H](CO)[C@@H](C)O)NC1=O [Octreotide, reference compound]
- half-life ([2]; dog, blood, intravenous administration, read-out: elimination half-life (converted)): ~30 min
- dose excreted ([3]; rats, 10 microgram/kg s.c., read-out: Percentage eliminated through Bile): 22%
- dose excreted ([3]; rats, 10 microgram/kg s.c., read-out: Percentage eliminated through Urine): 19%
- duration of GH lowering effect [4]: 5 h
- ID50 p.o. (GH level in the serum [7]): 1400 microgram/kg
- duration of increased stomach pH (gastric acid secretion): 2 hours
- pH of the stomach juice reached (gastric acid secretion): 6-7 pH

Molecule: N^α -isocaproyl-des-(1-4)-[Ala^7, N^κ -(α-D-glucosyl-(1-4)-deoxyfructosyl)-Lys^11,18 ]salmon Calcitonin [Example 38]
- duration of action compared with the unmodified peptide [6]: much longer
- reduction in the calcium level in the blood after 6 hours [6]: still as pronounced as after 3 hours
